From US10196381B2, “Benzimidazole-2-piperazine heterocyclic compound, pharmaceutical composition containing the same, preparation method and use thereof” (Shanghai Huilun Life Science & Technology Co., Ltd., priority 2013, dated 2019)

Molecular target: PARP-1 enzyme (Homo sapiens (Human), UniProt P09874)
Assay: PARP enzyme activity assay (HT Universal Chemiluminescent PARP Assay Kit, histone-coated wells)
Format: biochemical
Conditions: for inhibition at 0.03 µM: read-out: Inhibition (%) at 30 nM; for inhibition at 0.1 µM: read-out: Inhibition (%) at 100 nM
Protocol: PARP is an enzyme responsible for post-translational modification, which may be activated by means of DNA damage. The process catalyzed by PARP in vivo is mainly NAD-dependent poly(ADP-ribosyl)ation, in which the substrates are mainly some nuclear proteins including PARP, one example of which is histone. In the present invention, the PARP activity is assayed by determining the poly(ADP-ribosyl)ation degree of histone coated in a 96-well plate in the presence of NAD, and the PARP activity under the action of a PARP inhibitor is correspondingly assayed, thereby evaluating the degree of inhibition of the compounds on PARP activity. Poly(ADP-ribosyl)ation of nuclear proteins is a post-translational modification occurred in response to DNA damage. PARP is the abbreviation of poly(ADP-ribose)polymerase, which catalyzes the attachment of poly(ADP-ribose) to an adjacent nuclear protein in the presence of NAD, thus eliciting a mechanism of DNA repair through base excision repair pathway. The level of biotin-labeled ADP-ribose binding to histone can be detected by using the HT Universal Chemiluminescent PARP Assay Kit commercially available from Trevigen Corp. […] HT Universal Chemiluminescent PARP Assay Kit with Histone-coated Strip Wells, commercially available from Trevigen (US), Catalog #: 4676-096-K. […] 4. The PARP enzyme was carefully diluted with the 1×PARP buffer just before use, the diluted enzyme solution should be used as quickly as possible and the remaining solution should be discarded. […] 2. […] 1. […] 2. […] 4. […] After washing, equal volume of the PeroxyGlow A and B solutions were uniformly mixed, 100 μl of the solution was added to each well, and the chemiluminescent signals were recorded on a plate reader immediately. The readout of each well is converted into the percent inhibition. […] Note: the readout of the positive control well is designated as 100% enzyme activity; the readout of the negative control well is designated as 0% enzyme activity; and the activity X refers to the readout from respective concentration of each sample.

PARP-1 enzyme, sequence (P09874 whole entry): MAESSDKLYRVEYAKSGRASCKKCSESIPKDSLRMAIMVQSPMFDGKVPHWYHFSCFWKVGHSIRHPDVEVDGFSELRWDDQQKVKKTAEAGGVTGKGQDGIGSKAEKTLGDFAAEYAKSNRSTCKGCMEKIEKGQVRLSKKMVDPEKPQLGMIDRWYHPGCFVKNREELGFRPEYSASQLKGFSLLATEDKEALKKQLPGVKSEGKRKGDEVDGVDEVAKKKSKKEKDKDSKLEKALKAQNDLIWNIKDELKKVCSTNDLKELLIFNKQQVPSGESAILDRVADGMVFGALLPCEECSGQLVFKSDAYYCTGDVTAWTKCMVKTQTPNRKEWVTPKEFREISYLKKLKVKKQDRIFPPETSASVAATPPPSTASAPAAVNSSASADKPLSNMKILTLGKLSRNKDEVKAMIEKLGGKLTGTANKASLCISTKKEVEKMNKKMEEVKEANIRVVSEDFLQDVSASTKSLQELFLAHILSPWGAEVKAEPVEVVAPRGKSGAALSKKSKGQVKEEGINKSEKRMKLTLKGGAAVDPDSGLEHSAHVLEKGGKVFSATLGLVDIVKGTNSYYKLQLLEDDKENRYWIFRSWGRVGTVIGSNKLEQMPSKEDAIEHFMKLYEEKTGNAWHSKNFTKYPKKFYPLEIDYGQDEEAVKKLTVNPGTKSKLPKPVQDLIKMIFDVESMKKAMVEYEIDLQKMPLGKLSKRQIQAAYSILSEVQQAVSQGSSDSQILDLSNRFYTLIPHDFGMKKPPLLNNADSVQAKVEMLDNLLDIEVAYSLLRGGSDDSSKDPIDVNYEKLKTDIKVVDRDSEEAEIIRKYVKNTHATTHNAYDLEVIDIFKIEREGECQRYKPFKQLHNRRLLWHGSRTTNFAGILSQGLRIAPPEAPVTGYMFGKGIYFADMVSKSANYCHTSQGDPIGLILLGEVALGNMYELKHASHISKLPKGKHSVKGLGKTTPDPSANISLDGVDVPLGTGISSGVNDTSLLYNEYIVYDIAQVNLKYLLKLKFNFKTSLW

Compound	inhibition at 0.03 µM [%]	inhibition at 0.1 µM [%]
NC(=O)c1cc(F)cc2[nH]c(N3CCN(c4ccc(C(F)(F)F)nn4)CC3)nc12 [Compound (31), 6-fluoro-2-(4-(6-trifluoromethylpyridazin-3-yl)piperazin-1-yl)-1H-benzimidazole-4-carboxamide]	80	95
NC(=O)c1cc(F)cc2[nH]c(N3CCN(c4ccc(C(F)(F)F)nc4)CC3)nc12 [Compound (32), 6-fluoro-2-(4-(6-trifluoromethylpyridine-3-yl)piperazin-1-yl)-1H-benzimidazole-4-carboxamide]	66	84
NC(=O)c1cc(F)cc2[nH]c(N3CCN(c4cnc(C(F)(F)F)nc4)CC3)nc12 [Compound (33), 6-fluoro-2-(4-(2-trifluoromethylpyrimidin-5-yl)piperazin-1-yl)-1H-benzimidazole-4-carboxamide]	88	98
NC(=O)c1cc(F)cc2[nH]c(N3CCN(c4ncc(C(F)(F)F)cn4)CC3)nc12 [Compound (34), 6-fluoro-2-(4-(5-trifluoromethylpyrimidin-2-yl)piperazin-1-yl)-1H-benzimidazole-4-carboxamide]	36	60
NC(=O)c1cc(F)cc2[nH]c(N3CCN(c4cnc(C(F)(F)F)cn4)CC3)nc12 [Compound (35), 6-fluoro-2-(4-(5-trifluoromethylpyrazin-2-yl)piperazin-1-yl)-1H-benzimidazole-4-carboxamide]	76	91
CN(C)C(=O)c1cnc(N2CCN(c3nc4c(C(N)=O)cc(F)cc4[nH]3)CC2)cn1 [Compound (36), 2-(4-(5-dimethylcarbamoylpyrazin-2-yl)piperazin-1-yl)-6-fluoro-1H-benzimidazole-4-carboxamide]	83	92
N#Cc1cnc(N2CCN(c3nc4c(C(N)=O)cc(F)cc4[nH]3)CC2)cn1 [Compound (37), 2-(4-(5-cyanopyrazin-2-yl)piperazin-1-yl)-6-fluoro-1H-benzimidazole-4-carboxamide]	87	98
N#Cc1ncc(N2CCN(c3nc4c(C(N)=O)cc(F)cc4[nH]3)CC2)cn1 [Compound (38), 2-(4-(2-cyanopyrimidin-5-yl)piperazin-1-yl)-6-fluoro-1H-benzimidazole-4-carboxamide]	84	95
CNC(=O)c1ncc(N2CCN(c3nc4c(C(N)=O)cc(F)cc4[nH]3)CC2)cn1 [Compound (39)]	78	92
CCNC(=O)c1ncc(N2CCN(c3nc4c(C(N)=O)cc(F)cc4[nH]3)CC2)cn1 [Compound (40), 2-(4-(2-ethylcarbamoylpyrimidin-5-yl)piperazin-1-yl)-6-fluoro-1H-benzimidazole-4-carboxamide]	77	93
CN(C)C(=O)c1ncc(N2CCN(c3nc4c(C(N)=O)cc(F)cc4[nH]3)CC2)cn1 [Compound (41), 2-(4-(2-dimethylcarbamoylpyrimidin-5-yl)piperazin-1-yl)-6-fluoro-1H-benzimidazole-4-carboxamide]	75	92
